Experimental data published in US20150057363A1, “TREATMENT OF METHYLMALONIC ACIDURIA, ISOVALERIC ACIDURIA, AND OTHER ORGANIC ACIDURIAS WITH TOCOTRIENOL QUINONES” (priority 2011, published 2015).

Columns and labels:
MMA fibroblasts = test: MMA cell line assay: rescue of BSO-stressed fibroblasts (cell viability, Calcein AM); format: cell-based; settings: Homo sapiens, Fibroblast; fibroblasts from MMA patient stressed with 25 μM BSO; Calcein AM readout; read-out: ED50 (protection of cell viability)
Procedure: Alpha-Tocotrienol quinone, its redox-silent version (the bis-Boc protected corresponding hydroquinone), and solvent controls were tested for their ability to rescue cells from MMA fibroblasts of the patient diagnosed with MMA, when the cells were stressed by addition of L-buthionine-(S,R)-sulfoximine (BSO), as described in Jauslin et al., Hum. Mol. Genet. 11(24):3055 (2002), Jauslin et al., FASEB J. 17:1972-4 (2003), and International Patent Application WO 2004/003565. EC50 concentrations of test compound and its redox-silent version were determined and compared. The following compound, 2-((6E,10E)-3-hydroxy-3,7,11,15-tetramethylhexadeca-6,10,14-trienyl)-3,5,6-trimethyl-bis(t-butyloxycarbonyl)benzene-1,4-diol, the bis-Boc protected hydroquinone form of alpha-tocotrienol quinone, was used as the “redox-silent” alpha tocotrienol quinone, or αTTQ-RS.
DMEM (Dulbecco's Modified Eagle Medium)—No Glucose, No pyruvate—GIBCO®—Catalog number 11966-025 from Invitrogen. Fetal Calf Serum was obtained from PAA Laboratories. Basic fibroblast growth factor and epidermal growth factor were purchased from PeproTech. Penicillin-streptomycin-glutamine mix, L-buthionine (S,R)-sulfoximine, and insulin from bovine pancreas were purchased from Sigma. Calcein AM was purchased from Molecular Probes. […]

[1] = Pharmacokinetics of alpha-tocotrienol quinone in fasted dogs; settings: dog, in vivo, po, 10 mg/kg
Procedure: (§1) The particular dosage appropriate for a specific patient is determined by dose titration. […] This lack of dose-proportionality may be due to decreased absorption since there is no change in t1/2 over dose range. Alpha-tocotrienol quinone tested in rats was safe when given acutely up to 2000 mg/kg.

rats = settings: rat, in vivo
Procedure: as §1
The starting dose can be estimated based on the United States Food and Drug Administration guidelines titled “Estimating the Maximum Safe Starting Dose in Initial Clinical Trials for Therapeutics in Adult Healthy Volunteers” (July 2005) as well as the International Conference on Harmonisation of Technical Requirements for Registration of Pharmaceuticals for Human Use (ICH) guidelines titled “Guidance on Non-clinical Safety Studies for the Conduct of Human Clinical Trials and Marketing Authorization for Pharmaceuticals” (July 2008). Per ICH guidelines, predicted exposures from the starting dose should not exceed 1/50th the NOAEL (No-Adverse-Observed-Effect-Level) in the more sensitive species on a mg/m^2 basis. Following a single oral dose of alpha-tocotrienol quinone, the NOAEL was established to be 500 mg/kg for the female rat, i.e. 3,000 mg/m2. This dosage would be equivalent to 81 mg/kg in an adult human. 1/50th of 81 mg/kg is 1.6 mg/kg, i.e. 110 mg for a 70 kg adult, or 16 mg for a 10 kg child. This dose can be administered once, twice, or three times daily.

[2] = Pharmacokinetics of alpha-tocotrienol quinone in rats; format: in vivo, rat
Procedure: as §1

[3] = Blood-brain barrier crossing in mice; format: in vivo

SMILES: CC(C)=CCC/C(C)=C/CC/C(C)=C/CCC(C)(O)CCC1=C(C)C(=O)C(C)=C(C)C1=O (stereo not drawn) [alpha-tocotrienol quinone, Alpha-tocotrienol quinone]
- EC50 (MMA fibroblasts): 23 nM
- bioavailability [1]: ~16%
- safe when given acutely up to (rats): up to 2000 mg/kg
- NOAEL on mg/m2 basis (rats; po): 3,000 mg/m2
- dose-proportionality of AUC ([2]; increase in doses of 2.4: 6: 10: 20 gives increase in AUCs of 1.5: 2.8: 4.0: 6.7): less than dose-proportionality
- bioavailability ([2]; rat, in vivo, 10 mg/kg): ~90%
- crosses the blood-brain barrier [3]: crosses the blood-brain barrier
